Experimental data as given in US20100105904A1, “UREA TYPE CINNAMIDE DERIVATIVE” (priority 2006, published 2010).

These compounds were tested on Aβ42 production (assay: Quantification of Aβ peptide in neuronal culture from rat fetus brain (Aβ ELISA)). Conditions: 72 h; rat primary neuronal culture (cerebral cortex, embryonic day 18 Wistar rats); medium collected three days after addition of compound; Aβx-42 ELISA; read-out: Aβ42 production reducing effect IC50.
Type: cell-based
Experimental: Quantification of Aβ Peptide in Neuronal Culture from Rat Fetus Brain
Primary neuronal cultures were prepared from the cerebral cortex of embryonic day 18 Wistar rats (Charles River Japan, Yokohama, Japan). Specifically, the embryos were aseptically removed from pregnant rats under ether anesthesia. The brain was isolated from the embryo and immersed in an ice-cold L-15 medium (such as Invitrogen Corp. Cat #11415-064, Carlsbad, Calif., USA, or SIGMA L1518). The cerebral cortex was collected from the isolated brain under a stereoscopic microscope. The cerebral cortex fragments collected were enzymatically treated in an enzyme solution containing 0.25% trypsin (Invitrogen Corp. Cat #15050-065, Carlsbad, Calif., USA) and 0.01% DNase (Sigma D5025, St. Louis, Mo., USA) at 37° C. for 30 minutes to disperse the cells. Here, the enzymatic reaction was stopped by adding inactivated horse serum to the solution. The enzymatically treated solution was centrifuged at 1,500 rpm for five minutes to remove the supernatant. 5 to 10 ml of a medium was added to the resulting cell mass. Neurobasal medium (Invitrogen Corp. Cat #21103-049, Carlsbad, Calif., USA) supplemented with 2% B27 supplement (Invitrogen Corp. Cat #17504-044, Carlsbad, Calif., USA), 25 μM 2-mercaptoethanol (2-ME, WAKO Cat #139-06861, Osaka, Japan), 0.5 mM L-glutamine (Invitrogen Corp. Cat #25030-081, Carlsbad, Calif., USA), and Antibiotics-Antimycotics (Invitrogen Corp. Cat #15240-062, Carlsbad, Calif., USA) was used as the medium (Neurobasal/B27/2-ME). However, the above Neurobasal medium not supplemented with 2-ME (Neurobasal/B27) was used for the assay. The cells were redispersed by mild pipetting of the cell mass to which the medium was added. The cell dispersion was filtered through a 40-μm nylon mesh (Cell Strainer, Cat #35-2340, Becton Dickinson Labware, Franklin Lakes, N.J., USA) to remove the remaining cell mass, and thus a neuronal cell suspension was obtained. The neuronal cell suspension was diluted with the medium and then plated in a volume of 100 μl/well at an initial cell density of 5×10^5 cells/cm^2 in a 96-well polystyrene culture plate pre-coated with poly-L or D-lysine (Falcon Cat #35-3075, Becton Dickinson Labware, Franklin Lakes, N.J., USA coated with poly-L-lysine using the method shown below, or BIOCOAT™ cell environments Poly-D-lysine cell ware 96-well plate, Cat #35-6461, Becton Dickinson Labware, Franklin Lakes, N.J., USA). Poly-L-lysine coating was carried out as follows. 100 μg/ml of a poly-L-lysine (SIGMA P2636, St. Louis, Mo., USA) solution was aseptically prepared with a 0.15 M borate buffer (pH 8.5). […] of the solution was added to the 96-well polystyrene culture plate and incubated at room temperature for one or more hours or at 4° C. overnight or longer. The coated 96-well polystyrene culture plate was washed with sterile water four or more times, and then dried or rinsed with, for example, sterile PBS or medium, and used for cell plating. The plated cells were cultured in the culture plate at 37° C. in 5% CO2-95% air for one day. Then, the total amount of the medium was replaced with a fresh Neurobasal™/B27/2-ME medium, and then the cells were cultured for further three days.
The drug was added to the culture plate on Day 4 of culture as follows. The total amount of the medium was removed from the wells, and 180 μl/well of Neurobasal medium not containing 2-ME and containing 2% B-27 (Neurobasal/B27) was added thereto. A solution of the test compound in dimethyl sulfoxide (hereinafter abbreviated as DMSO) was diluted with Neurobasal/B27 to a concentration 10-fold higher than the final concentration. 20 μl/well of the dilution was added to and sufficiently mixed with the medium. The final DMSO concentration was 1% or less. Only DMSO was added to the control group.
The cells were cultured for three days after addition of the compound, and the total amount of the medium was collected. The resulting medium was used as an ELISA sample. […]
With `COc1cc(NC(=O)NCCCc2ccc(C3CCCCC3)cc2)ccc1-n1cnc(C)c1` [Example 26, 1-[3-(4-cyclohexyl-phenyl)propyl]-3-[3-methoxy-4-(4-methyl-1H-imidazol-1-yl)phenyl]urea monotrifluoroacetate] the IC50 was 230 nM.
In the case of `COc1cc(NC(=O)N2CCCC(c3ccccc3)C2)ccc1-n1cnc(C)c1` (centres unmarked) [Example 21, 3-phenyl-piperidine-1-carboxylic acid [3-methoxy-4-(4-methyl-1H-imidazol-1-yl)phenyl]amide monotrifluoroacetate], the IC50 is reported as 1660 nM.
`COc1cc(NC(=O)NCc2cc(F)c(F)c(F)c2)ccc1-n1cnc(C)c1` [Example 19, 1-[3-methoxy-4-(4-methyl-1H-imidazol-1-yl)phenyl]-3-(3,4,5-trifluorobenzyl)urea monotrifluoroacetate] gave an IC50 of 2070 nM.
Compound `COc1cc(NC(=O)NCc2ccc(Cl)c(Cl)c2)ccc1-n1cnc(C)c1` [Example 8, 1-(3,4-dichlorobenzyl)-3-[3-methoxy-4-(4-methyl-1H-imidazol-1-yl)phenyl]urea] has an IC50 of 1710 nM.
Work on `COc1cc(NC(=O)N2CCC(c3ccccc3)CC2)ccc1-n1cnc(C)c1` [Example 20, 4-phenyl-piperidine-1-carboxylic acid [3-methoxy-4-(4-methyl-1H-imidazo1-1-yl)phenyl]amide monotrifluoroacetate] yielded an IC50 of 1610 nM.
Compound `COc1cc(NC(=O)NCCCc2ccccc2)ccc1-n1cnc(C)c1` [Example 18, 1-[3-methoxy-4-(4-methyl-1H-imidazol-1-yl)phenyl]-3-(3-phenylpropyl)urea monotrifluoroacetate] has an IC50 of 860 nM.
`COc1cc(NC(=O)NCC2(c3ccccc3)Cc3ccccc3C2)ccc1-n1cnc(C)c1` [Example 15, 1-[3-methoxy-4-(4-methyl-1H-imidazol-1-yl)phenyl]-3-(2-phenyl-indan-2-ylmethyl)urea monotrifluoroacetate] showed an IC50 of 160 nM.
`COc1cc(NC(=O)N[C@@H](C)c2ccc(F)cc2)ccc1-n1cnc(C)c1` [Example 10, 1-[(S)-1-(4-fluorophenyl)ethyl]-3-[3-methoxy-4-(4-methyl-1H-imidazol-1-yl)phenyl]urea] showed an IC50 of 1220 nM.
`COc1cc(NC(=O)NCC2c3ccccc3-c3ccccc32)ccc1-n1ccnc1` [Example 6, 1-(9H-fluoren-9-ylmethyl)-3-[4-(1H-imidazol-1-yl)-3-methoxyphenyl]urea] was tested, and the IC50 was 5200 nM.
Compound `COc1cc(NC(=O)NC[C@H](O)c2ccccc2)ccc1-n1cnc(C)c1` [Example 29, 1-(R)-2-hydroxy-2-phenylethyl-3-[3-methoxy-4-(4-methyl-1H-imidazol-1-yl)phenyl]urea] has an IC50 of 3840 nM.
`COc1cc(NC(=O)NCCC(c2ccccc2)c2ccccc2)ccc1-n1cnc(C)c1` [Example 24, 1-(3,3-diphenylpropyl)-3-[3-methoxy-4-(4-methyl-1H-imidazol-1-yl)phenyl]urea monotrifluoroacetate] was tested, and the IC50 was 220 nM.
`COc1cc(NC(=O)NCCc2ccc(Cl)c(Cl)c2)ccc1-n1cnc(C)c1` [Example 11, 1-[2-(3,4-dichlorophenyl)ethyl]-3-[3-methoxy-4-(4-methyl-1H-imidazol-1-yl)phenyl]urea] showed an IC50 of 970 nM.
For `COc1cc(NC(=O)N2CCCCC2CCc2ccccc2F)ccc1-n1cnc(C)c1` (centres unmarked) [Example 16, 2-[2-(2-fluorophenyl)ethyl]piperidine-1-carboxylic acid [3-methoxy-4-(4-methyl-1H-imidazol-1-yl)phenyl]amide monotrifluoroacetate], the IC50 was 1420 nM.
Compound `COc1cc(NC(=O)NC(Cc2ccccc2)c2ccccc2)ccc1-n1cnc(C)c1` (centres unmarked) [Example 17, 1-(1,2-diphenyl-ethyl)-[3-methoxy-4-(4-methyl-1H-imidazol-1-yl)phenyl]urea monotrifluoroacetate] has an IC50 of 560 nM.
Work on `COc1cc(NC(=O)NCC(C)(C)c2ccccc2)ccc1-n1cnc(C)c1` [Example 27, 1-[3-methoxy-4-(4-methyl-1H-imidazol-1-yl)phenyl]-3-(2-methyl-2-phenylpropyl)urea monotrifluoroacetate] yielded an IC50 of 540 nM.
`COc1cc(NC(=O)N[C@@H](CO)Cc2ccccc2)ccc1-n1cnc(C)c1` [Example 23, 1-((R)-1-hydroxymethyl-2-phenylethyl)-3-[3-methoxy-4-(4-methyl-1H-imidazol-1-yl)phenyl]urea] gave an IC50 of 1050 nM.
`COc1cc(NC(=O)NCC(c2ccccc2)c2ccccc2)ccc1-n1cnc(C)c1` [Example 25, 1-(2,2-diphenylethyl)-3-[3-methoxy-4-(4-methyl-1H-imidazol-1-yl)phenyl]urea monotrifluoroacetate] was tested, and the IC50 was 190 nM.
